According to patent publication US11566007B2, “Ras inhibitors” (Revolution Medicines, Inc., priority 2019, dated 2023):

How the values were obtained:
K-Ras G13C = K-Ras G13C (Homo sapiens (Human), UniProt P01116+P62937, G13C); assay: Ras-Raf (BRAF RBD) disruption / FRET / MOA assay, KRAS G13C; assay type: biochemical; details: KRAS G13C; Ras-Raf disruption/FRET/MOA assay; read-out: IC50* KRAS G13C FRET data
Outline: (§1)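 Compounds, top final concentration 30 μM in 10-point 3-fold series, incubated 3 hours at 25° C with nucleotide-loaded Ras, cyclophilin A and BRAF RBD.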

KRAS G12D = KRAS G12D (Homo sapiens (Human), UniProt P01116+P62937, G12D); assay: Ras-Raf (BRAF RBD) disruption / FRET / MOA assay, KRAS G12D; assay type: biochemical; details: Ras-Raf disruption/FRET/MOA assay; class symbols; read-out: KRAS G12D FRET data IC50
Outline: as §1

NCI-H358 (K-Ras G12C) = assay: CellTiter-Glo cell viability assay, NCI-H358; assay type: cell-based, human; details: Homo sapiens, NCI-H358, 120 h, NCI-H358, 5-day treatment; class symbols; read-out: Additional H358 Cell Viability assay data (K-Ras G12C, IC50)
Outline: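 Compounds dispensed directly onto seeded K-Ras mutant cells; plates read on day 5 after ~30 min equilibration to room temperature, by CellTiter-Glo luminescence. Signal normalized as (sample/mean DMSO)×100, then fitted to a four-parameter logistic curve.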

NRAS Q61R = NRAS Q61R (Homo sapiens (Human), UniProt P01111+P62937, Q61R); assay: Ras-Raf (BRAF RBD) disruption / FRET / MOA assay, NRAS Q61R; assay type: biochemical; details: NRAS Q61R; Ras-Raf disruption/FRET/MOA assay; read-out: IC50* NRAS Q61R FRET data
Outline: (§2)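 TR-FRET disruption of nucleotide-loaded Ras binding to BRAF RBD via compound-driven ternary complex with cyclophilin A. Compound as 10-point 3-fold series from 30 μM final, 3 h at 25° C, then anti-His Eu-W1024 (10 nM) and anti-GST allophycocyanin (50 nM) for 1.5 h. IC50 from decreased FRET ratio versus DMSO.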

KRAS G12V = KRAS G12V (Homo sapiens (Human), UniProt P01116+P62937, G12V); assay: Ras-Raf (BRAF RBD) disruption / FRET / MOA assay, KRAS G12V; assay type: biochemical; details: read-out: IC50* KRAS G12V FRET data
Outline: as §1

NRAS WT = NRAS WT (Homo sapiens (Human), UniProt P01111+P62937); assay: Ras-Raf (BRAF RBD) disruption / FRET / MOA assay, NRAS WT; assay type: biochemical; details: read-out: IC50* NRAS WT FRET data
Outline: as §2

NRAS G12C = NRAS G12C (Homo sapiens (Human), UniProt P01111+P62937, G12C); assay: Ras-Raf (BRAF RBD) disruption / FRET / MOA assay, NRAS G12C; assay type: biochemical; details: read-out: IC50* NRAS G12C FRET data
Outline: as §1

K-Ras G13C, sequence (P01116-2 other isoform, or with tags, fused parts or gaps G13C): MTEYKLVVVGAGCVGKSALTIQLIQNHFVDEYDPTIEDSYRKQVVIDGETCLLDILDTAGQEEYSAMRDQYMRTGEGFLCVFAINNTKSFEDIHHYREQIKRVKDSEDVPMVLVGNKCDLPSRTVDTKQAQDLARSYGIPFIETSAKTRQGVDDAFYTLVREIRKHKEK
K-Ras G13C, sequence (P62937 whole entry): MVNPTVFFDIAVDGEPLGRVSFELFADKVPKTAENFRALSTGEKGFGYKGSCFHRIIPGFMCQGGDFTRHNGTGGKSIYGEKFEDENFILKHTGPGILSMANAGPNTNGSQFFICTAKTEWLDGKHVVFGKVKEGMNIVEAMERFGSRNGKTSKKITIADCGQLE
NRAS WT, sequence (P01111 whole entry): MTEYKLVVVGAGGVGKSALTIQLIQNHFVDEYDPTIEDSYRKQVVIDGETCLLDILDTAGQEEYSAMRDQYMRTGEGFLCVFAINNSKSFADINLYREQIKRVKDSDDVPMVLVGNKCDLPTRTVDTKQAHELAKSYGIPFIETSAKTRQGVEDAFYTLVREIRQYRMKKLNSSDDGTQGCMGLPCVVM
NRAS WT, sequence (P62937 whole entry): as the sequence (P62937 whole entry) above
NRAS G12C, sequence (P01111 whole entry G12C): as the sequence (P01111 whole entry) above, with G12C counted along it
NRAS G12C, sequence (P62937 whole entry): as the sequence (P62937 whole entry) above
KRAS G12D, sequence (P01116-2 other isoform, or with tags, fused parts or gaps G12D): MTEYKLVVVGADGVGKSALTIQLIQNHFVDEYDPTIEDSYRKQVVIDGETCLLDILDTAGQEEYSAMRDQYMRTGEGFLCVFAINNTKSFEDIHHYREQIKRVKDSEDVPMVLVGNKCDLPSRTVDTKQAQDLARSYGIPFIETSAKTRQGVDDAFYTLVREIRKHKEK
KRAS G12D, sequence (P62937 whole entry): as the sequence (P62937 whole entry) above
NRAS Q61R, sequence (P01111 whole entry Q61R): as the sequence (P01111 whole entry) above, with Q61R counted along it
NRAS Q61R, sequence (P62937 whole entry): as the sequence (P62937 whole entry) above
KRAS G12V, sequence (P01116-2 other isoform, or with tags, fused parts or gaps G12V): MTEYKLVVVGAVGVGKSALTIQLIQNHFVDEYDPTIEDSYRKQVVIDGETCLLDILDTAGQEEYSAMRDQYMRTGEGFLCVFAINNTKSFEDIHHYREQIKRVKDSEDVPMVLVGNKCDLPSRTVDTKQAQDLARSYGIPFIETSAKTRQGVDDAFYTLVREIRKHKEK
KRAS G12V, sequence (P62937 whole entry): as the sequence (P62937 whole entry) above

In the case of `CCn1c(-c2cccnc2[C@H](C)OC)c2c3cc(ccc31)-c1cccc(c1)C[C@H](NC(=O)[C@@H](COC1CN(C(=O)C#CC(C)(C)N(C)C3CC3)C1)C(C)C)C(=O)N1CCC[C@H](N1)C(=O)OCC(C)(C)C2` (atropisomer, axis not shown) [Example A613], the IC50 (K-Ras G13C) is reported as > 10000 nM, the IC50 (KRAS G12D) is reported as > 10 µM and the IC50 (NCI-H358 (K-Ras G12C)) is reported as 10 to 100 nM. For the same compound, the IC50 (NRAS Q61R) was > 10000 nM, the IC50 (KRAS G12V) was > 10000 nM and the IC50 (NRAS WT) was > 10000 nM. For the same compound, the IC50 (NRAS G12C) was 1000 to 10000 nM.
In the case of `CCn1c(-c2cccnc2[C@H](C)OC)c2c3cc(ccc31)N1CCC[C@@H](C[C@H](NC(=O)[C@H](C(C)C)N(C)C(=O)[C@H]3CCN(C(=O)C#CC(C)(C)N4CCC4)C3)C(=O)N3CCC[C@H](N3)C(=O)OCC(C)(C)C2)C1` (atropisomer, axis not shown) [Example A617], the IC50 (K-Ras G13C) is reported as > 10000 nM, the IC50 (KRAS G12D) is reported as > 10 µM and the IC50 (NCI-H358 (K-Ras G12C)) is reported as 10 to 100 nM. For the same compound, the IC50 (NRAS Q61R) was > 10000 nM, the IC50 (KRAS G12V) was > 10000 nM and the IC50 (NRAS WT) was > 10000 nM. For the same compound, the IC50 (NRAS G12C) was 10 to 100 nM.
For `C=CC(=O)N1CCC[C@H]2CN(C(=O)N(C)[C@H](C(=O)N[C@H]3Cc4nc(cs4)-c4ccc5c(c4)c(c(-c4cccnc4[C@H](C)OC)n5CC)CC(C)(C)COC(=O)[C@@H]4CCCN(N4)C3=O)C(C)C)C[C@H]21` (atropisomer, axis not shown) [Example A618], the IC50 (K-Ras G13C) was 100 to 1000 nM, the IC50 (KRAS G12D) was 1 to 10 µM and the IC50 (NCI-H358 (K-Ras G12C)) was 10 to 100 nM. For the same compound, the IC50 (NRAS Q61R) was 100 to 1000 nM, the IC50 (KRAS G12V) was 100 to 1000 nM and the IC50 (NRAS WT) was 100 to 1000 nM. For the same compound, the IC50 (NRAS G12C) was 100 to 1000 nM.
`CCn1c(-c2cccnc2[C@H](C)OC)c2c3cc(ccc31)-c1csc(n1)C[C@H](NC(=O)[C@H](C(C)C)N(C)C(=O)N1C[C@@H]3CN(C(=O)C#CC(C)(C)N(C)C)CC[C@@H]31)C(=O)N1CCC[C@H](N1)C(=O)OCC(C)(C)C2` (atropisomer, axis not shown) [Example A625] was tested, and the IC50 (K-Ras G13C) was 100 to 1000 nM, the IC50 (KRAS G12D) was 1 to 10 µM and the IC50 (NCI-H358 (K-Ras G12C)) was 10 to 100 nM. The IC50 (NRAS Q61R) was 100 to 1000 nM, the IC50 (KRAS G12V) was 100 to 1000 nM and the IC50 (NRAS WT) was 100 to 1000 nM. It also gave an IC50 (NRAS G12C) of 100 to 1000 nM.
Compound `C=CC(=O)N(C)[C@H]1CN(C(=O)N(C)[C@H](C(=O)N[C@H]2Cc3nc(cs3)-c3ccc4c(c3)c(c(-c3cccnc3[C@H](C)OC)n4CC)CC(C)(C)COC(=O)[C@@H]3CCCN(N3)C2=O)C(C)C)C[C@@H]1F` (atropisomer, axis not shown) [Example A632] has an IC50 (K-Ras G13C) of 10 to 100 nM, an IC50 (KRAS G12D) of 1 to 10 µM and an IC50 (NCI-H358 (K-Ras G12C)) of 100 to 1000 nM. The IC50 (NRAS Q61R) was 100 to 1000 nM, the IC50 (KRAS G12V) was 100 to 1000 nM and the IC50 (NRAS WT) was 100 to 1000 nM. The IC50 (NRAS G12C) was 10 to 100 nM.
`C=CC(=O)N(C)[C@@H]1C[C@H](C)N(C(=O)N(C)[C@H](C(=O)N[C@H]2Cc3nc(cs3)-c3ccc4c(c3)c(c(-c3cccnc3[C@H](C)OC)n4CC)CC(C)(C)COC(=O)[C@@H]3CCCN(N3)C2=O)C(C)C)C1` (atropisomer, axis not shown) [Example A633] showed an IC50 (K-Ras G13C) of 100 to 1000 nM, an IC50 (KRAS G12D) of 0.1 to 1 µM and an IC50 (NCI-H358 (K-Ras G12C)) of 10 to 100 nM. For the same compound, the IC50 (NRAS Q61R) was 10 to 100 nM, the IC50 (KRAS G12V) was 100 to 1000 nM and the IC50 (NRAS WT) was 10 to 100 nM. The IC50 (NRAS G12C) was 10 to 100 nM.
With `C=CC(=O)N(C)[C@@H]1C[C@@H](C)N(C(=O)N(C)[C@H](C(=O)N[C@H]2Cc3nc(cs3)-c3ccc4c(c3)c(c(-c3cccnc3[C@H](C)OC)n4CC)CC(C)(C)COC(=O)[C@@H]3CCCN(N3)C2=O)C(C)C)C1` (atropisomer, axis not shown) [Example A634] the IC50 (K-Ras G13C) was 100 to 1000 nM, the IC50 (KRAS G12D) was 1 to 10 µM and the IC50 (NCI-H358 (K-Ras G12C)) was 10 to 100 nM. It also gave an IC50 (NRAS Q61R) of 100 to 1000 nM, an IC50 (KRAS G12V) of 100 to 1000 nM and an IC50 (NRAS WT) of 100 to 1000 nM. It also gave an IC50 (NRAS G12C) of 10 to 100 nM.
Work on `C=CC(=O)N1CCCC2(CCN(C(=O)N(C)[C@H](C(=O)N[C@H]3Cc4nc(cs4)-c4ccc5c(c4)c(c(-c4cccnc4[C@H](C)OC)n5CC)CC(C)(C)COC(=O)[C@@H]4CCCN(N4)C3=O)C(C)C)CC2)C1` (atropisomer, axis not shown) [Example A635] yielded an IC50 (K-Ras G13C) of 100 to 1000 nM, an IC50 (KRAS G12D) of 1 to 10 µM and an IC50 (NCI-H358 (K-Ras G12C)) of 100 to 1000 nM. It also gave an IC50 (NRAS Q61R) of 100 to 1000 nM, an IC50 (KRAS G12V) of 100 to 1000 nM and an IC50 (NRAS WT) of 100 to 1000 nM. The IC50 (NRAS G12C) was 100 to 1000 nM.
